Measurements from patent publication US8592174B2, “Peptidase substrates” (bioMérieux, S.A., priority 2009, dated 2013).

Assays:
Format in all cases: cell-based
Details in all cases: 75 mg/l, 48 h 37° C.
[1] = tested on: Acinetobacter baumannii 0604029; assay: Peptidase detection on Columbia medium (Example 5); further: key: +++: good growth/high coloration strength; ++: medium growth/medium coloration strength; +: weak growth/weak coloration strength; −: no growth/no coloration
Experimental: (§1) After homogenization, the media were distributed into Petri dishes 55 mm in diameter. A medium acting as a growth control (Columbia) and denoted C was also poured.
(§2) Twenty-two strains of microorganisms were inoculated with a 10 μl calibrated loop according to the three-quadrant streaking method using bacterial suspensions at 0.5 McFarland.

[2] = tested on: Bacillus subtilis 0204038; assay: Peptidase detection on Columbia medium (Example 5)
Experimental: as §1, §2

[3] = tested on: Burkholderia cepacia 7507032; assay: Peptidase detection on Columbia medium (Example 5)
Experimental: as §1, §2

Candida albicans 0801025 [4] = assay: Peptidase detection on Columbia medium (Example 5); further: key: +++: good growth/high coloration strength; ++: medium growth/medium coloration strength; +: weak growth/weak coloration strength; −: no growth/no coloration
Experimental: as §1, §2

Candida glabrata 0408083 [5] = assay: Peptidase detection on Columbia medium (Example 5); further: key: +++: good growth/high coloration strength; ++: medium growth/medium coloration strength; +: weak growth/weak coloration strength; −: no growth/no coloration
Experimental: as §1, §2

[6] = tested on: Citrobacter freundii 0006197; assay: Peptidase detection on Columbia medium (Example 5); further: key: +++: good growth/high coloration strength; ++: medium growth/medium coloration strength; +: weak growth/weak coloration strength; −: no growth/no coloration
Experimental: as §1, §2

[7] = tested on: Enterobacter cloacae 0604040; assay: Peptidase detection on Columbia medium (Example 5)
Experimental: as §1, §2

[8] = tested on: Enterococcus faecalis 0008192; assay: Peptidase detection on Columbia medium (Example 5)
Experimental: as §1, §2

[9] = tested on: Enterococcus faecium 0610021; assay: Peptidase detection on Columbia medium (Example 5)
Experimental: as §1, §2

Escherichia coli 0002005 [10] = assay: Peptidase detection on Columbia medium (Example 5)
Experimental: as §1, §2

[11] = tested on: Klebsiella pneumoniae 0008009; assay: Peptidase detection on Columbia medium (Example 5)
Experimental: as §1, §2

[12] = tested on: Listeria monocytogenes 8812049; assay: Peptidase detection on Columbia medium (Example 5)
Experimental: as §1, §2

MRSA 0303033 [13] = assay: Peptidase detection on Columbia medium (Example 5)
Experimental: as §1, §2

[14] = tested on: Morganella morganii 9207053; assay: Peptidase detection on Columbia medium (Example 5)
Experimental: as §1, §2

[15] = tested on: Providencia rettgeri 0706064; assay: Peptidase detection on Columbia medium (Example 5)
Experimental: as §1, §2

[16] = tested on: Pseudomonas aeruginosa 0001001; assay: Peptidase detection on Columbia medium (Example 5)
Experimental: as §1, §2

[17] = tested on: Salmonella ser. Typhimurium 0801029; assay: Peptidase detection on Columbia medium (Example 5)
Experimental: as §1, §2

[18] = tested on: Serratia marcescens 7303004; assay: Peptidase detection on Columbia medium (Example 5)
Experimental: as §1, §2

[19] = tested on: Staphylococcus aureus 7811049; assay: Peptidase detection on Columbia medium (Example 5)
Experimental: as §1, §2

[20] = tested on: Staphylococcus epidermidis 0203050; assay: Peptidase detection on Columbia medium (Example 5)
Experimental: as §1, §2

[21] = tested on: Streptococcus pyogenes 9806380; assay: Peptidase detection on Columbia medium (Example 5)
Experimental: as §1, §2

[22] = tested on: Yersinia enterocolitica 7605019; assay: Peptidase detection on Columbia medium (Example 5)
Experimental: as §1, §2

[23] = tested on: Pseudomonas aeruginosa 0001001; assay: Peptidase detection on Columbia medium (Example 3); parameters: Coloration strength: key: +++: good growth/high coloration strength; ++: medium growth/medium coloration strength; +: weak growth/weak coloration strength; −: no growth/no coloration
Source text: (§3) A medium serving as a growth control (Columbia) and denoted C was also poured.

[24] = tested on: Serratia marcescens 7303004; assay: Peptidase detection on Columbia medium (Example 3); parameters: Coloration strength: key: +++: good growth/high coloration strength; ++: medium growth/medium coloration strength; +: weak growth/weak coloration strength; −: no growth/no coloration
Source text: as §3

[25] = tested on: Acinetobacter baumannii 0604029; assay: Peptidase detection on Columbia medium (Example 3)
Source text: as §3

[26] = tested on: Bacillus subtilis 0204038; assay: Peptidase detection on Columbia medium (Example 3)
Source text: as §3

[27] = tested on: Burkholderia cepacia 7507032; assay: Peptidase detection on Columbia medium (Example 3)
Source text: as §3

Candida albicans 0801025 [28] = assay: Peptidase detection on Columbia medium (Example 3)
Source text: as §3

Candida glabrata 0408083 [29] = assay: Peptidase detection on Columbia medium (Example 3)
Source text: as §3

[30] = tested on: Citrobacter freundii 0006197; assay: Peptidase detection on Columbia medium (Example 3)
Source text: as §3

[31] = tested on: Enterobacter cloacae 0604040; assay: Peptidase detection on Columbia medium (Example 3)
Source text: as §3

[32] = tested on: Enterococcus faecalis 0008192; assay: Peptidase detection on Columbia medium (Example 3)
Source text: as §3

[33] = tested on: Enterococcus faecium 0610021; assay: Peptidase detection on Columbia medium (Example 3)
Source text: as §3

Escherichia coli 0002005 [34] = assay: Peptidase detection on Columbia medium (Example 3)
Source text: as §3

[35] = tested on: Klebsiella pneumoniae 0008009; assay: Peptidase detection on Columbia medium (Example 3)
Source text: as §3

[36] = tested on: Listeria monocytogenes 8812049; assay: Peptidase detection on Columbia medium (Example 3)
Source text: as §3

MRSA 0303033 [37] = assay: Peptidase detection on Columbia medium (Example 3)
Source text: as §3

[38] = tested on: Morganella morganii 9207053; assay: Peptidase detection on Columbia medium (Example 3)
Source text: as §3

[39] = tested on: Providencia rettgeri 0706064; assay: Peptidase detection on Columbia medium (Example 3)
Source text: as §3

[40] = tested on: Salmonella ser. Typhimurium 0801029; assay: Peptidase detection on Columbia medium (Example 3)
Source text: as §3

[41] = tested on: Staphylococcus aureus 7811049; assay: Peptidase detection on Columbia medium (Example 3)
Source text: as §3

[42] = tested on: Staphylococcus epidermidis 0203050; assay: Peptidase detection on Columbia medium (Example 3)
Source text: as §3

[43] = tested on: Streptococcus pyogenes 9806380; assay: Peptidase detection on Columbia medium (Example 3)
Source text: as §3

[44] = tested on: Yersinia enterocolitica 7605019; assay: Peptidase detection on Columbia medium (Example 3)
Source text: as §3

Structure (SMILES): C[C@H](N)C(=O)Nc1ccc(C=Cc2ccc3ccccc3[n+]2C)cc1.Cl.[Cl-] [L-alanyl-2-(4′-amidostyryl)-N-methylquinolinium (dichloride)]
- Coloration strength [1]: −
- Growth ([1]; control C: ++): ++
- Color [2]: orange
- Coloration strength [2]: +
- Growth ([2]; control C: ++): ++
- Coloration strength [3]: −
- Growth ([3]; control C: ++): ++
- Coloration strength (Candida albicans 0801025 [4]): −
- Growth (Candida albicans 0801025 [4]; control C: ++): ++
- Coloration strength (Candida glabrata 0408083 [5]): −
- Growth (Candida glabrata 0408083 [5]; control C: +): +
- Coloration strength [6]: −
- Growth ([6]; control C: ++): ++
- Coloration strength [7]: −
- Growth ([7]; control C: ++): ++
- Color [8]: orange
- Coloration strength [8]: +
- Growth ([8]; control C: +): +
- Color [9]: orange
- Coloration strength [9]: +
- Growth ([9]; control C: +): +
- Coloration strength (Escherichia coli 0002005 [10]): −
- Growth (Escherichia coli 0002005 [10]; control C: ++): ++
- Coloration strength [11]: −
- Growth ([11]; control C: ++): ++
- Color [12]: orange
- Coloration strength [12]: +
- Growth ([12]; control C: +): +
- Color (MRSA 0303033 [13]): orange
- Coloration strength (MRSA 0303033 [13]): +
- Growth (MRSA 0303033 [13]; control C: ++): ++
- Coloration strength [14]: −
- Growth ([14]; control C: ++): ++
- Coloration strength [15]: −
- Growth ([15]; control C: ++): ++
- Coloration strength [16]: −
- Growth ([16]; control C: ++): ++
- Coloration strength [17]: −
- Growth ([17]; control C: ++): ++
- Color [18]: orange
- Coloration strength [18]: +
- Growth ([18]; control C: ++): ++
- Coloration strength [19]: −
- Growth ([19]; control C: ++): ++
- Color [20]: orange
- Coloration strength [20]: +
- Growth ([20]; control C: ++): ++
- Coloration strength [21]: −
- Growth ([21]; control C: +): +
- Coloration strength [22]: −
- Growth ([22]; control C: +): +

Structure (SMILES): Cc1cc(C=Cc2ccc(NC(=O)[C@@H]3CCC(=O)N3)cc2)c2ccccc2[n+]1C.[I-] [pyroglutamyl-4-(4′-amidostyryl)-N-methylquinaldinium iodide]
- Color [23]: Orangey-red
- Coloration strength [23]: +++
- Growth ([23]; control C: +++): +++
- Coloration strength [24]: ++
- Growth ([24]; control C: +++): +++
- Coloration strength [25]: −
- Growth ([25]; control C: +++): +++
- Coloration strength [26]: −
- Growth ([26]; control C: +++): −
- Coloration strength [27]: −
- Growth ([27]; control C: ++): ++
- Coloration strength (Candida albicans 0801025 [28]): −
- Growth (Candida albicans 0801025 [28]; control C: ++): +
- Coloration strength (Candida glabrata 0408083 [29]): −
- Growth (Candida glabrata 0408083 [29]; control C: +): −
- Coloration strength [30]: −
- Growth ([30]; control C: +++): +++
- Coloration strength [31]: −
- Growth ([31]; control C: +++): +++
- Coloration strength [32]: −
- Growth ([32]; control C: ++): ++
- Coloration strength [33]: −
- Growth ([33]; control C: ++): ++
- Coloration strength (Escherichia coli 0002005 [34]): −
- Growth (Escherichia coli 0002005 [34]; control C: +++): +++
- Coloration strength [35]: −
- Growth ([35]; control C: +++): +++
- Coloration strength [36]: −
- Growth ([36]; control C: ++): ++
- Coloration strength (MRSA 0303033 [37]): −
- Growth (MRSA 0303033 [37]; control C: +++): ++
- Coloration strength [38]: −
- Growth ([38]; control C: +++): +++
- Coloration strength [39]: −
- Growth ([39]; control C: +++): +++
- Coloration strength [40]: −
- Growth ([40]; control C: +++): +++
- Coloration strength [41]: −
- Growth ([41]; control C: ++): ++
- Coloration strength [42]: −
- Growth ([42]; control C: ++): −
- Coloration strength [43]: −
- Growth ([43]; control C: −): −
- Coloration strength [44]: −
- Growth ([44]; control C: ++): +
